Target: T1, glucocorticoid receptor (Homo sapiens, UniProt P04150)
T1 construct: endogenous in cells; ATCC cat
T1 sequence (P04150 1-777): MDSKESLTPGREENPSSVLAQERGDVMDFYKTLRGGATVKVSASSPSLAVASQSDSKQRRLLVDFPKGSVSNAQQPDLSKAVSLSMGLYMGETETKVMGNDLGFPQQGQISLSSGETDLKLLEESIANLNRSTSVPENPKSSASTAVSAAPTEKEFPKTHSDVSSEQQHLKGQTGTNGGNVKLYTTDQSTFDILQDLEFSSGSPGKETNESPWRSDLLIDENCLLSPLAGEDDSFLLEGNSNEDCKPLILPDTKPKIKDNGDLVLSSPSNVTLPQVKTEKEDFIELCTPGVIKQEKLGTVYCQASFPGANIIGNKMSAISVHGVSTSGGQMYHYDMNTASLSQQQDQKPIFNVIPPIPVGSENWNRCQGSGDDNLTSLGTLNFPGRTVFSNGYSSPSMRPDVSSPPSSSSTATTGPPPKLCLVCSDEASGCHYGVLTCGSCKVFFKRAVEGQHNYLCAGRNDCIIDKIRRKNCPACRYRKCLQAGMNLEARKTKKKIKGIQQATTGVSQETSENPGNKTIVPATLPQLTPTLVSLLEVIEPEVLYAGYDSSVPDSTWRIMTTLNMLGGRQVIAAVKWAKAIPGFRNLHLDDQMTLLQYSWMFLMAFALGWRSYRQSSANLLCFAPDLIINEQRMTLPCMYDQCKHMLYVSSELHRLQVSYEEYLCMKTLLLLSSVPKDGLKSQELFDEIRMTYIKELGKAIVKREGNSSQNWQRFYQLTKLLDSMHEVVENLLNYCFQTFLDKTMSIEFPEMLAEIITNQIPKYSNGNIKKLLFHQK
Test: Hep G2 TAT Ki: inhibition of dexamethasone-induced TAT in HepG2 cells (96 well)
Format: cell-based
Settings: challenge of 100 nM dexamethasone, IC50 converted to Ki by Cheng and Prusoff equation
Method: Glucocorticoid mediated activation of TAT occurs by transactivation of glucocorticoid response elements in the TAT promoter by glucocorticoid receptor-agonist complex.
HepG2 cells were cultured using MEME media supplemented with 10% (v/v) foetal bovine serum; 2 mM L-glutamine and 1% (v/v) NEAA at 37° C., 5%/95% (v/v) CO2/air.
Compounds were serially half log diluted in 100% (v/v) dimethylsulphoxide from a 10 mM stock.
HepG2 cells were then lysed with 30 μl of cell lysis buffer containing a protease inhibitor cocktail for 15 minutes at 4° C. […] After 2 hours incubation at 37° C. the reaction was terminated by the addition of 15 μl of 10M aqueous potassium hydroxide solution, and the plates incubated for a further 30 minutes at 37° C.
[compound] and fitting the data to a 4 parameter logistic equation.

Compound | Ki [µM]
5-(1-(2-fluoro-2-methylpropyl)-4-((2-methyl-2H-1,2,3-triazol-4-yl)sulfonyl)piperazin-2-yl)-1-(4-fluorophenyl)-6-methyl-1H-indazole [Example 162a] | 0.057
Cc1cc2c(cnn2-c2ccc(F)cc2)cc1[C@@H]1CN(S(=O)(=O)c2cnn(C)n2)CCN1C[C@H]1C[C@@H](O)C1 (racemic) [Example 154, 3-((2-(1-(4-fluorophenyl)-6-methyl-1H-indazol-5-yl)-4-((2-methyl-2H-1,2,3-triazol-4-yl)sulfonyl)piperazin-1-yl)methyl)cyclobutan-1-ol] | 0.024
Cc1cc2c(cnn2-c2ccc(F)cc2)cc1[C@@H]1CN(S(=O)(=O)c2cnn(C)n2)CCN1C[C@H](C)F (racemic) [Example 158, 1-(4-fluorophenyl)-5-(1-(2-fluoropropyl)-4-((2-methyl-2H-1,2,3-triazol-4-yl)sulfonyl)piperazin-2-yl)-6-methyl-1H-indazole] | 0.045
Cc1cc2c(cnn2-c2ccc(F)cc2)cc1[C@H]1CN(S(=O)(=O)c2cnn(C)n2)C[C@@H](C)N1CC(C)C (relative stereo) [Example 127] | 0.022
CO[C@H]1C[C@@H](CN2CCN(S(=O)(=O)c3cnn(C)n3)C[C@H]2c2cc3cnn(-c4ccc(F)cc4)c3cc2C)C1 (relative stereo) [Example 155, 1-(4-fluorophenyl)-5-(1-((3-methoxycyclobutyl)methyl)-4-((2-methyl-2H-1,2,3-triazol-4-yl)sulfonyl)piperazin-2-yl)-6-methyl-1H-indazole] | 0.011
CO[C@H]1C[C@@H](CN2CCN(S(=O)(=O)c3cnc(C)s3)C[C@@H]2c2cc3cnn(-c4ccc(F)cc4)c3cc2C)C1 (relative stereo) [Example 172, 5-((3-(1-(4-fluorophenyl)-6-methyl-1H-indazol-5-yl)-4-((3-methoxycyclobutyl)methyl)piperazin-1-yl)sulfonyl)-2-methylthiazole] | 0.036
Cc1cc2c(cnn2-c2ccc(F)cc2)cc1C1CN(S(=O)(=O)c2ccn(C)n2)CCN1CC(C)C (single isomer, unassigned) [Example 1, 1-(4-fluorophenyl)-5-(1-isobutyl-4-((1-methyl-1H-pyrazol-3-yl)sulfonyl)piperazin-2-yl)-6-methyl-1H-indazole] | 0.035
Cc1cc2c(cnn2-c2ccc(F)cc2)cc1C1CN(S(=O)(=O)c2cnn(C)n2)CCN1Cc1ccccc1 (single isomer, unassigned) [Example 5, 5-(1-benzyl-4-((2-methyl-2H-1,2,3-triazol-4-yl)sulfonyl)piperazin-2-yl)-1-(4-fluorophenyl)-6-methyl-1H-indazole] | 0.42
Cc1cc2c(cnn2-c2ccc(F)cc2)cc1C1CN(S(=O)(=O)c2cnn(C)n2)CCN1Cc1ccccc1 (single isomer, unassigned) [Example 6, 5-(1-benzyl-4-((2-methyl-2H-1,2,3-triazol-4-yl)sulfonyl)piperazin-2-yl)-1-(4-fluorophenyl)-6-methyl-1H-indazole] | 0.046
Cc1cc2c(cnn2-c2ccc(F)cc2)cc1C1CN(S(=O)(=O)c2cnn(C)n2)CCN1CC(C)C (single isomer, unassigned) [Example 10, 1-(4-fluorophenyl)-5-(1-isobutyl-4-((2-methyl-2H-1,2,3-triazol-4-yl)sulfonyl)piperazin-2-yl)-6-methyl-1H-indazole] | 0.43
Cc1cc2c(cnn2-c2ccc(F)cc2)cc1C1CN(S(=O)(=O)c2cnn(C)n2)CCN1CC(C)C (single isomer, unassigned) [Example 11, 1-(4-fluorophenyl)-5-(1-isobutyl-4-((2-methyl-2H-1,2,3-triazol-4-yl)sulfonyl)piperazin-2-yl)-6-methyl-1H-indazole] | 0.02
Cc1cc2c(cnn2-c2ccc(F)cc2)cc1C1CN(S(=O)(=O)c2ccn(C)n2)CCN1CC(C)C (single isomer, unassigned) [Example 20, 1-(4-fluorophenyl)-5-(1-isobutyl-4-((1-methyl-1H-pyrazol-3-yl)sulfonyl)piperazin-2-yl)-6-methyl-1H-indazole] | 0.13
Cc1cc2c(cnn2-c2ccc(F)cc2)cc1C1CN(S(=O)(=O)c2cnn(C)n2)CCN1CC(C)C(F)(F)F (single isomer, unassigned) [Example 21, 1-(4-fluorophenyl)-6-methyl-5-(4-((2-methyl-2H-1,2,3-triazol-4-yl)sulfonyl)-1-(3,3,3-trifluoro-2-methylpropyl)piperazin-2-yl)-1H-indazole] | 0.12
Cc1cc2c(cnn2-c2ccc(F)cc2)cc1[C@@H]1CN(S(=O)(=O)c2cnn(C)n2)CCN1CC(C)C(F)(F)F (single isomer, unassigned) [Example 23] | 0.013
Cc1cc2c(cnn2-c2ccc(F)cc2)cc1C1CN(S(=O)(=O)c2cnn(C)n2)CCN1C1CCC1 (single isomer, unassigned) [Example 25, 5-(1-cyclobutyl-4-((2-methyl-2H-1,2,3-triazol-4-yl)sulfonyl)piperazin-2-yl)-1-(4-fluorophenyl)-6-methyl-1H-indazole] | 0.077
COC1CC(N2CCN(S(=O)(=O)c3cnn(C)n3)CC2c2cc3cnn(-c4ccc(F)cc4)c3cc2C)C1 (single isomer, unassigned) [Example 26, 1-(4-fluorophenyl)-5-(1-(3-methoxycyclobutyl)-4-((2-methyl-2H-1,2,3-triazol-4-yl)sulfonyl)piperazin-2-yl)-6-methyl-1H-indazole] | 0.18
Cc1cc2c(cnn2-c2ccc(F)cc2)cc1C1CN(S(=O)(=O)c2cnn(C)n2)CCN1C1CCCC1 (single isomer, unassigned) [Example 27, 5-(1-cyclopentyl-4-((2-methyl-2H-1,2,3-triazol-4-yl)sulfonyl)piperazin-2-yl)-1-(4-fluorophenyl)-6-methyl-1H-indazole] | 0.047
Cc1cc2c(cnn2-c2ccc(F)cc2)cc1C1CN(S(=O)(=O)c2cnn(C)n2)CCN1C1COC1 (single isomer, unassigned) [Example 28, 1-(4-fluorophenyl)-6-methyl-5-(4-((2-methyl-2H-1,2,3-triazol-4-yl)sulfonyl)-1-(oxetan-3-yl)piperazin-2-yl)-1H-indazole] | 0.23
Cc1cc2c(cnn2-c2ccc(F)cc2)cc1C1CN(S(C)(=O)=O)CCN1Cc1ccccc1 (single isomer, unassigned) [Example 29, 5-(1-benzyl-4-(methylsulfonyl)piperazin-2-yl)-1-(4-fluorophenyl)-6-methyl-1H-indazole] | 0.074
Cc1cc2c(cnn2-c2ccc(F)cc2)cc1C1CN(S(C)(=O)=O)CCN1CC1CCOCC1 (single isomer, unassigned) [Example 30, 1-(4-fluorophenyl)-6-methyl-5-(4-(methylsulfonyl)-1-((tetrahydro-2H-pyran-4-yl)methyl)piperazin-2-yl)-1H-indazole] | 0.09
Cc1ncc(S(=O)(=O)N2CCN(CC(C)C)C(c3cc4cnn(-c5ccc(F)cc5)c4cc3C)C2)s1 (single isomer, unassigned) [Example 31, 5-((3-(1-(4-fluorophenyl)-6-methyl-1H-indazol-5-yl)-4-isobutylpiperazin-1-yl)sulfonyl)-2-methylthiazole] | 0.011
Cc1cc2c(cnn2-c2ccc(F)cc2)cc1C1CN(S(=O)(=O)c2cnn(C)n2)CCN1CC(C)C(F)(F)F (single isomer, unassigned) [Example 33] | 0.011

— patent US12098144B2, “Piperazine indazole glucocorticoid receptor antagonists” (Corcept Therapeutics Incorporated, priority 2021, dated 2024)
